Converted amounts (≈) assume the structure as drawn.
Test: Solubility of emodepside in water
Assay type: physicochemical
Details: range of pH 4-10

solubility: 5 to 7 µg/mL (≈ 4.47 to 6.25 µM)
Structure (SMILES): CC(C)CC1C(=O)OC(Cc2ccc(N3CCOCC3)cc2)C(=O)N(C)C(CC(C)C)C(=O)OC(C)C(=O)N(C)C(CC(C)C)C(=O)OC(Cc2ccc(N3CCOCC3)cc2)C(=O)N(C)C(CC(C)C)C(=O)OC(C)C(=O)N1C [Emodepside, cyclo[(R)-lactoyl-N-methyl-1-leucyl-(R)-3-(p-morpholinophenyl)lactoyl-N-methyl-1-leucyl-(R)-lactoyl-N-methyl-1-leucyl-(R)-3-(p-morpholinophenyl)lactoyl-N-methyl-1-leucyl]

From US10251932B2, “Preparations containing amorphous emodepside” (Bayer Intellectual Property GmbH, priority 2011, dated 2019)
